This is an account of results in patent publication US9551710B2, “Signaling molecule involved in ultraviolet damage to skin” (Drexel University, priority 2010, dated 2017).

For assay [1], the system named is UV induced apoptosis in mouse skin. The following applies: from cited literature; cited from earlier work.
Assay [2] relates to MMP-1 expression in human dermal fibroblasts (HDFs). The assay is described as follows: MMP-1 expression by western blot of culture supernatants of UV-exposed human dermal fibroblasts pretreated with kinase inhibitors. It counts as cell-based. Particulars: UVB 60 mJ/cm^2, medium collected 24 hours after exposure. How it is done:
Human dermal fibroblasts AG04058 (Coriell Institute for Medical Research, Camden, N.J.) were cultured and maintained in MEM containing glucose (4.5 mg/ml), glutamine (2 mM), […], and 10% heat-inactivated fetal bovine serum. For cell transfection, Fugene 6 transfection kit (Roche, Germany) was used to deliver Syk cDNA and the Saint-Red siRNA delivery system (Synvolux Therapeutics B.V., The Netherlands) was chosen to transfect Syk siRNA and control siRNA (Santa Cruz Biotechnology Inc., Santa Cruz, Calif.) into the cells. Cells were exposed to UVB (312 nm) (60 mJ/cm^2) by a Stratalinker UV Crosslinker (Stratagene, La Jolla, Calif.). Cell supernatants were collected 24 hrs after UV exposure, and prepared for MMP-1 expression assay.
Twenty-four hours after UV exposure, the culture media of HDFs were collected for MMP-1 assay. Based on OD280 measurement, equal amounts of proteins from the supernatants were mixed with 2× sample buffer, boiled for 5 min and chilled on ice. Samples were then subjected to […] and electrophoretically transferred to nitrocellulose membrane. The membrane was blocked with 5% dry milk in washing buffer. MMP-1 was detected with anti-MMP-1 antibody, and the results were visualized by an ECL detection system. For Syk protein and MAPK activation western blot assays, cell pellets were lysed in 1× Triton X-100 lysis buffer (1% Triton X-100, 5 mmol/L Hepes—KOH, pH 7.4) in the presence of protease and phosphatase inhibitors containing 5 mM EGTA, 3 mM Na orthovanadate, 2 mM phenylmethylsulfonyl fluoride, and […] aprotinin and leupeptin (Sigma Chemical Co., St. Louis, Mo.). Following centrifugation at 12,000 rpm for 30 min at 4° C., the cleared lysates were subjected to the same procedure as that followed for MMP-1 assay. Syk protein and MAPK activation were detected with anti-Syk antibody and anti-phospho-MAPK antibodies, respectively, by western blot. For the activation of Syk kinase assay, briefly, cell lysates were precleared by incubation with protein G plus agarose (Santa Cruz Biotechnology, Inc.), and then incubated overnight at 4° C. with anti-Syk antibody. Immune complexes would bind to protein G plus agarose in the lysis buffer. The agarose beads were washed three times with lysis buffer and the adsorbed proteins were eluted into the sample buffer. Tyrosine phosphorylation of Syk kinase (Syk activation) was determined with anti-phosphotyrosine antibody by western blot.
Human fibroblast cells (AG04058) were seeded into 24-well tissue culture dishes with MEM medium one day before the assay. Specific inhibitors for each kinase were added into each different well as indicated (FIG. 4). […]
The dose-response of piceatannol inhibition was assessed in HDFs exposed to UVB (60 mJ/cm^2) (FIG. 9B).
Background: Immunoblotting shows a protein as a band on a membrane.

As for `Oc1ccc(-c2nc(-c3ccncc3)c(-c3ccc(F)cc3)[nH]2)cc1` [SB202190], the “UV induced apoptosis in mouse skin, in words” value in assay [1] is listed as “blocked”.
Regarding `Oc1cc(O)cc(/C=C/c2ccc(O)c(O)c2)c1` [piceatannol], the “inhibition of MMP-1 expression (western blot, image-density analysis)” value in assay [2] (piceatannol 1 μg/ml) was “no inhibition”; in assay [2] (piceatannol 5 μg/ml) it was “no inhibition”; in assay [2] (piceatannol 10 μg/ml), 20%; in assay [2] (piceatannol 25 μg/ml) it was 63%.
